# Literature values, collected in patent US10858388B2, “Selective progesterone receptor modulator (SPRM) regimen” (BAYER PHARMA AKTIENGESELLSCHAFT, priority 2015, dated 2020).
# Columns and labels:
# [1] = system: endometrium; settings: relatively low concentration, WO2009/134178; cited from earlier work
# [2] = system: women with excessive uterine bleeding due to the presence of fibroids; settings: 5 mg Ulipristal Acetate, cited from earlier work
# [3] = system: fibroids; settings: in vivo; cited from earlier work
smiles,measurement,setting,value
COCC(=O)[C@@]1(OC(C)=O)CC[C@H]2[C@@H]3CCC4=CC(=O)CCC4=C3[C@@H](c3ccc(N(C)C)cc3)C[C@@]21C [CDB-4124],Endometrium during treatment,[1],substantial thickening of the endometrium
CC(=O)O[C@]1(C(C)=O)CC[C@H]2[C@@H]3CCC4=CC(=O)CCC4=C3[C@@H](c3ccc(N(C)C)cc3)C[C@@]21C [Ulipristal Acetate],"≤2 ml, indicating Amenorrhea - (%), EoT 13 Weeks",[2]; 13 weeks,75%
same,"≤2 ml, indicating Amenorrhea - no./total no., EoT 13 Weeks",[2]; 13 weeks,70/93
same,Amenorrhea (<2 ml) at EoT (%) 12 Weeks,[2]; data from Jacques Donnez et al,~75%
CC#C[C@]1(O)CC[C@H]2[C@@H]3CCC4=CC(=O)CCC4=C3[C@@H](c3ccc(N(C)C)cc3)C[C@@]21C [mifepristone],Size of fibroids and related symptoms,[3],decrease the size of fibroids and related symptoms
